Reference: ChEMBL document CHEMBL3352701, “Discovery of a 1,2-bis(3-indolyl)ethane that selectively inhibits the pyruvate kinase of methicillin-resistant Staphylococcus aureus over human isoforms” (Bioorg Med Chem Lett, 2014)
In brackets after ≈: the same amount, converted by molar mass.

Tests used:
Pyruvate kinase = biological target: T1, Pyruvate kinase (Staphylococcus aureus (strain MRSA252), UniProt Q6GG09); experiment: Inhibition of purified methicillin-resistant Staphylococcus aureus N-terminal His-tagged pyruvate kinase by LDH-coupled continuous assay
T1 sequence (Q6GG09 whole entry): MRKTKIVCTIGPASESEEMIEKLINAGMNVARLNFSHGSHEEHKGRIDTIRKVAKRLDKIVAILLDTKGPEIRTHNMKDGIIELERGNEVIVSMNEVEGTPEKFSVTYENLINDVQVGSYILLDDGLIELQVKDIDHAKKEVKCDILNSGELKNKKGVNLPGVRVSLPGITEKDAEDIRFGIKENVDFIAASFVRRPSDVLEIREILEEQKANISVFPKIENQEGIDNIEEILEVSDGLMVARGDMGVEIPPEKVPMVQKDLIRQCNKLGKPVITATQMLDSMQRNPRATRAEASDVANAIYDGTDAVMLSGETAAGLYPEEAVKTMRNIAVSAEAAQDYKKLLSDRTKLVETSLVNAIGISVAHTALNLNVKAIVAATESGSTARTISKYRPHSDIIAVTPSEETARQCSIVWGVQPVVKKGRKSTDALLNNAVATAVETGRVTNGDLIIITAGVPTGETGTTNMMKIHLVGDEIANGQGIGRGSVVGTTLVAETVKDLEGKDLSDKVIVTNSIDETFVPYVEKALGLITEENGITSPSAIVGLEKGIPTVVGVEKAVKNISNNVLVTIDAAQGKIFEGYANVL

Pyruvate kinase PKM [1] = biological target: T2, Pyruvate kinase PKM (Homo sapiens, UniProt P14618); experiment: Inhibition of purified human N-terminal His-tagged PK-M1 at 40 uM by LDH-coupled continuous assay
Target sequence in this assay (P14618 2-531 limits assumed): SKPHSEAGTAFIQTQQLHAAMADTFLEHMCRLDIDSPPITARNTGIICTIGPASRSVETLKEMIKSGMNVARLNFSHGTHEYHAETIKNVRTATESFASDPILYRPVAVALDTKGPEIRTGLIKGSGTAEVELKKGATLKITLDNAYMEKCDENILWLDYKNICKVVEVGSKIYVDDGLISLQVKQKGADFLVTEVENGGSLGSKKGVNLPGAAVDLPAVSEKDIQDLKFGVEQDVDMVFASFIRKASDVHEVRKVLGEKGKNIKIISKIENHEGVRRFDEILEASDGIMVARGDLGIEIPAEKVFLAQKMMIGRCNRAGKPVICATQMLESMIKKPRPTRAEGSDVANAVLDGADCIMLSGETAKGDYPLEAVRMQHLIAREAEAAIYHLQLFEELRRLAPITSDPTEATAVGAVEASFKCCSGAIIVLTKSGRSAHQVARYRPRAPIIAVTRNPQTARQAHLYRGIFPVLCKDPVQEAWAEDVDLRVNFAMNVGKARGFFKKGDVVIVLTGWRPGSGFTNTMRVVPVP

Pyruvate kinase PKM [2] = biological target: T2, Pyruvate kinase PKM; experiment: Inhibition of purified human N-terminal His-tagged PK-M2 at 40 uM by LDH-coupled continuous assay
Target sequence in this assay (P14618 2-531 limits assumed): as above

Pyruvate kinase PKLR [3] = biological target: T3, Pyruvate kinase PKLR (Homo sapiens, UniProt P30613); experiment: Inhibition of purified human N-terminal His-tagged PK-R at 40 uM by LDH-coupled continuous assay
Target sequence in this assay (P30613 whole entry, looked up): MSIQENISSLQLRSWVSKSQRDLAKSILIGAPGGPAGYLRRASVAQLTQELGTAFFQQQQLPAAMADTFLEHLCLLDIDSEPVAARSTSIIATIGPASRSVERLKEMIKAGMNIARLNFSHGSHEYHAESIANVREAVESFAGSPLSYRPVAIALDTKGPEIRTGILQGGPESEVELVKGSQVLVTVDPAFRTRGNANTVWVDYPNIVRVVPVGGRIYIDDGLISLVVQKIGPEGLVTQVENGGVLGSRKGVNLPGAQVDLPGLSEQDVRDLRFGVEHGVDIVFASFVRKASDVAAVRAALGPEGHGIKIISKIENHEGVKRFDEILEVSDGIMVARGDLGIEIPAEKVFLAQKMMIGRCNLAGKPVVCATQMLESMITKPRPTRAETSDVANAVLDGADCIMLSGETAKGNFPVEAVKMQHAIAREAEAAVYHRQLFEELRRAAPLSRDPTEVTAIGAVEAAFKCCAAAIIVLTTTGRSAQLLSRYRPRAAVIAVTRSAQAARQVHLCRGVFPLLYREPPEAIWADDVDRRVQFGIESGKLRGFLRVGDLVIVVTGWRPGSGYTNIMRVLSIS

Pyruvate kinase PKLR [4] = biological target: T3, Pyruvate kinase PKLR; experiment: Inhibition of purified human N-terminal His-tagged PK-L at 40 uM by LDH-coupled continuous assay
Target sequence in this assay (P30613 whole entry, looked up): as above

[5] = biological target: T4, Pyruvate kinase (Staphylococcus aureus (strain MRSA252)) (UniProt Q6GG09); details: 40 uM
T4 sequence (whole entry): T1 sequence (Q6GG09 whole entry)
Description: Inhibition of purified methicillin-resistant Staphylococcus aureus N-terminal His-tagged pyruvate kinase at 40 uM by LDH-coupled continuous assay

[6] = biological target: T4, Pyruvate kinase (Staphylococcus aureus (strain MRSA252)); experiment: Inhibition of purified methicillin-resistant Staphylococcus aureus N-terminal His-tagged pyruvate kinase at 50 uM by LDH-coupled continuous assay
Pyruvate kinase PKM [7] = biological target: T2, Pyruvate kinase PKM; experiment: Inhibition of purified human N-terminal His-tagged PK-M1 at 50 uM by LDH-coupled continuous assay
Target sequence in this assay (P14618 2-531 limits assumed): as the sequence (P14618 2-531 limits assumed) above

Pyruvate kinase PKM [8] = biological target: T2, Pyruvate kinase PKM; experiment: Inhibition of purified human N-terminal His-tagged PK-M2 at 50 uM by LDH-coupled continuous assay
Target sequence in this assay (P14618 2-531 limits assumed): as above

Pyruvate kinase PKLR [9] = biological target: T3, Pyruvate kinase PKLR; experiment: Inhibition of purified human N-terminal His-tagged PK-R at 50 uM by LDH-coupled continuous assay
Target sequence in this assay (P30613 whole entry, looked up): as the sequence (P30613 whole entry, looked up) above

Pyruvate kinase PKLR [10] = biological target: T3, Pyruvate kinase PKLR; experiment: Inhibition of purified human N-terminal His-tagged PK-L at 50 uM by LDH-coupled continuous assay
Target sequence in this assay (P30613 whole entry, looked up): as above

Pyruvate kinase PKM [11] = biological target: T2, Pyruvate kinase PKM; experiment: Inhibition of purified human N-terminal His-tagged PK-M1 by LDH-coupled continuous assay
Target sequence in this assay (P14618 whole entry): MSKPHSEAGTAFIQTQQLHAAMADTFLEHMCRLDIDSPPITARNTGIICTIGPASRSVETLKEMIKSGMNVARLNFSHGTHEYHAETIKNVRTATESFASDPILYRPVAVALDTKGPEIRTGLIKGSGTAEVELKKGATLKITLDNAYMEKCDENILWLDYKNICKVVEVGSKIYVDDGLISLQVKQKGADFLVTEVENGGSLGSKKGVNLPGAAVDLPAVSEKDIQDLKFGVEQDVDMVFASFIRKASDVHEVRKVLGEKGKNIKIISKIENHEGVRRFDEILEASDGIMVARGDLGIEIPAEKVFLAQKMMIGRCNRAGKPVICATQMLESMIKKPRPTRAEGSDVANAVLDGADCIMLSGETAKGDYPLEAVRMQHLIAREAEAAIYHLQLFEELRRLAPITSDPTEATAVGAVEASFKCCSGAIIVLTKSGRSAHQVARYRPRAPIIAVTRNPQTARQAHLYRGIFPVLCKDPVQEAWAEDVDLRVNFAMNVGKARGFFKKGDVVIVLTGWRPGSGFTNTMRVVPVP

Pyruvate kinase PKM [12] = biological target: T2, Pyruvate kinase PKM; experiment: Inhibition of purified human N-terminal His-tagged PK-M2 by LDH-coupled continuous assay
Target sequence in this assay (P14618 whole entry): as above

Pyruvate kinase PKLR [13] = biological target: T3, Pyruvate kinase PKLR; experiment: Inhibition of purified human N-terminal His-tagged PK-R by LDH-coupled continuous assay
Target sequence in this assay (P30613 whole entry): as the sequence (P30613 whole entry, looked up) above

Pyruvate kinase PKLR [14] = biological target: T3, Pyruvate kinase PKLR; experiment: Inhibition of purified human N-terminal His-tagged PK-L by LDH-coupled continuous assay
Target sequence in this assay (P30613 whole entry): as the sequence (P30613 whole entry, looked up) above

[15] = biological target: T4, Pyruvate kinase (Staphylococcus aureus (strain MRSA252)); experiment: Inhibition of purified methicillin-resistant Staphylococcus aureus N-terminal His-tagged pyruvate kinase at 10 uM by LDH-coupled continuous assay
Pyruvate kinase PKM [16] = biological target: T2, Pyruvate kinase PKM; details: 10 uM
Target sequence in this assay (P14618 2-531 limits assumed): as the sequence (P14618 2-531 limits assumed) above
Description: Inhibition of purified human N-terminal His-tagged PK-M1 at 10 uM by LDH-coupled continuous assay

Pyruvate kinase PKM [17] = biological target: T2, Pyruvate kinase PKM; details: 10 uM; remark: listed apart in the source
Target sequence in this assay (P14618 2-531 limits assumed): as above
Description: Inhibition of purified human N-terminal His-tagged PK-M2 at 10 uM by LDH-coupled continuous assay

Pyruvate kinase PKLR [18] = biological target: T3, Pyruvate kinase PKLR; details: 10 uM
Target sequence in this assay (P30613 whole entry, looked up): as the sequence (P30613 whole entry, looked up) above
Description: Inhibition of purified human N-terminal His-tagged PK-R at 10 uM by LDH-coupled continuous assay

Pyruvate kinase PKLR [19] = biological target: T3, Pyruvate kinase PKLR; details: 10 uM; remark: listed apart in the source
Target sequence in this assay (P30613 whole entry, looked up): as above
Description: Inhibition of purified human N-terminal His-tagged PK-L at 10 uM by LDH-coupled continuous assay

[20] = biological target: T4, Pyruvate kinase (Staphylococcus aureus (strain MRSA252)); experiment: Inhibition of purified methicillin-resistant Staphylococcus aureus N-terminal His-tagged pyruvate kinase at 100 uM by LDH-coupled continuous assay
Pyruvate kinase PKM [21] = biological target: T2, Pyruvate kinase PKM; experiment: Inhibition of purified human N-terminal His-tagged PK-M1 at 100 uM by LDH-coupled continuous assay
Pyruvate kinase PKM [22] = biological target: T2, Pyruvate kinase PKM; experiment: Inhibition of purified human N-terminal His-tagged PK-M2 at 100 uM by LDH-coupled continuous assay
Pyruvate kinase PKLR [23] = biological target: T3, Pyruvate kinase PKLR; experiment: Inhibition of purified human N-terminal His-tagged PK-R at 100 uM by LDH-coupled continuous assay
Pyruvate kinase PKLR [24] = biological target: T3, Pyruvate kinase PKLR; experiment: Inhibition of purified human N-terminal His-tagged PK-L at 100 uM by LDH-coupled continuous assay
Staphylococcus aureus = experiment: Antimicrobial activity against Staphylococcus aureus ATCC 29213 after 24 hrs by CLSI microtiter method; format: functional; details: ATCC 29213, 24 h
[25] = biological target: T4, Pyruvate kinase (Staphylococcus aureus (strain MRSA252)); experiment: Inhibition of purified methicillin-resistant Staphylococcus aureus N-terminal His-tagged pyruvate kinase at 150 uM by LDH-coupled continuous assay
Pyruvate kinase PKM [26] = biological target: T2, Pyruvate kinase PKM; experiment: Inhibition of purified human N-terminal His-tagged PK-M1 at 150 uM by LDH-coupled continuous assay
Pyruvate kinase PKM [27] = biological target: T2, Pyruvate kinase PKM; experiment: Inhibition of purified human N-terminal His-tagged PK-M2 at 150 uM by LDH-coupled continuous assay
Pyruvate kinase PKLR [28] = biological target: T3, Pyruvate kinase PKLR; experiment: Inhibition of purified human N-terminal His-tagged PK-R at 150 uM by LDH-coupled continuous assay
Pyruvate kinase PKLR [29] = biological target: T3, Pyruvate kinase PKLR; experiment: Inhibition of purified human N-terminal His-tagged PK-L at 150 uM by LDH-coupled continuous assay

For `Clc1ccc2c(CCc3c[nH]c4ccccc34)c[nH]c2c1`, the IC50 (Pyruvate kinase; read-out: IC50) was 272 µM.
`COc1ccc2[nH]cc(CCc3c[nH]c4ccccc34)c2c1` was tested, and the IC50 (Pyruvate kinase; read-out: IC50) was 38.6 µM.
`N#Cc1ccc2[nH]cc(CCc3c[nH]c4ccccc34)c2c1` was tested, and the IC50 (Pyruvate kinase; read-out: IC50) was 4.2 µM, the inhibition (Pyruvate kinase PKM [1]) was -0.5% and the inhibition (Pyruvate kinase PKM [2]) was 1.1%. It also gave an inhibition (Pyruvate kinase PKLR [3]) of 53.5%, an inhibition (Pyruvate kinase PKLR [4]) of 62.4% and an inhibition [5] of 82.9%.
In the case of `O=C(C(=O)c1c[nH]c2ccccc12)c1c[nH]c2ccccc12`, the IC50 (Pyruvate kinase; read-out: IC50) is reported as 50.2 µM.
With `O=[N+]([O-])c1cccc2[nH]cc(CCc3c[nH]c4ccccc34)c12` the IC50 (Pyruvate kinase; read-out: IC50) was 5.7 µM, the inhibition [6] was 92.8% and the inhibition (Pyruvate kinase PKM [7]) was 2.2%. The inhibition (Pyruvate kinase PKM [8]) was 50.1%, the inhibition (Pyruvate kinase PKLR [9]) was 71.8% and the inhibition (Pyruvate kinase PKLR [10]) was 75.5%.
`O=[N+]([O-])c1ccc2c(CCc3c[nH]c4ccccc34)c[nH]c2c1` showed an IC50 (Pyruvate kinase; read-out: IC50) of 0.9 µM, an IC50 (Pyruvate kinase PKM [11]) of 95.9 µM and an IC50 (Pyruvate kinase PKM [12]) of 54.6 µM. The IC50 (Pyruvate kinase PKLR [13]) was 18.2 µM, the IC50 (Pyruvate kinase PKLR [14]) was 21.5 µM and the inhibition [15] was 59.6%. The inhibition (Pyruvate kinase PKM [16]) was 1.1%, the inhibition (Pyruvate kinase PKM [17]) was 2.8% and the inhibition (Pyruvate kinase PKLR [18]) was 3%. For the same compound, the inhibition (Pyruvate kinase PKLR [19]) was 3.3%.
`FC(F)(F)c1ccc2[nH]cc(CCc3c[nH]c4ccccc34)c2c1` gave an IC50 (Pyruvate kinase; read-out: IC50) of 13.3 µM, an inhibition [20] of 88.4% and an inhibition (Pyruvate kinase PKM [21]) of 36.7%. It also gave an inhibition (Pyruvate kinase PKM [22]) of 95.2%, an inhibition (Pyruvate kinase PKLR [23]) of 91.4% and an inhibition (Pyruvate kinase PKLR [24]) of 85.4%.
In the case of `Cc1ccc2[nH]cc(CCc3c[nH]c4ccccc34)c2c1`, the IC50 (Pyruvate kinase; read-out: IC50) is reported as 32.8 µM.
With `N#Cc1ccc2c(CCc3c[nH]c4ccccc34)c[nH]c2c1` the IC50 (Pyruvate kinase) was “Not Active” and the MIC (Staphylococcus aureus) was 16 µg/mL (≈ 56.1 µM).
`CCN(C(C)=O)c1ccc2c(CCc3c[nH]c4ccccc34)c[nH]c2c1` showed an IC50 (Pyruvate kinase; read-out: IC50) of 148 µM.
`Cc1ccc2c(CCc3c[nH]c4ccccc34)c[nH]c2c1` gave an IC50 (Pyruvate kinase; read-out: IC50) of 294 µM.
For `COc1ccc2c(CCc3c[nH]c4ccccc34)c[nH]c2c1`, the IC50 (Pyruvate kinase) was “Not Active”.
`Fc1cc(Cl)cc2c(CCc3c[nH]c4ccccc34)c[nH]c12` gave an IC50 (Pyruvate kinase; read-out: IC50) of 4.6 µM, an inhibition [6] of 88.2% and an inhibition (Pyruvate kinase PKM [7]) of 1.1%. The inhibition (Pyruvate kinase PKM [8]) was 80.9%, the inhibition (Pyruvate kinase PKLR [9]) was 85.4% and the inhibition (Pyruvate kinase PKLR [10]) was 95.7%.
In the case of `Clc1ccc2[nH]cc(CCc3c[nH]c4ccccc34)c2c1`, the IC50 (Pyruvate kinase; read-out: IC50) is reported as 12.5 µM, the inhibition [20] is reported as 114% and the inhibition (Pyruvate kinase PKM [21]) is reported as 30.8%. The inhibition (Pyruvate kinase PKM [22]) was 98.7%, the inhibition (Pyruvate kinase PKLR [23]) was 95% and the inhibition (Pyruvate kinase PKLR [24]) was 103%.
`Fc1ccc2[nH]cc(CCc3c[nH]c4ccccc34)c2c1` was tested, and the IC50 (Pyruvate kinase; read-out: IC50) was 19.8 µM, the inhibition [25] was 108% and the inhibition (Pyruvate kinase PKM [26]) was 55.1%. The inhibition (Pyruvate kinase PKM [27]) was 85.5%, the inhibition (Pyruvate kinase PKLR [28]) was 99% and the inhibition (Pyruvate kinase PKLR [29]) was 101%.
Compound `c1ccc2c(CCc3c[nH]c4ccccc34)c[nH]c2c1` has an IC50 (Pyruvate kinase; read-out: IC50) of 57.3 µM.
